Measured values: PubChem BioAssay (NCI)
Where “and” joins values, the source holds several entries; their conditions need not be identical. Equal entries are not always repeated.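 Dose response: 5 concentrations. Exposure: 48 h. Format: 96-well plates. Endpoint: linear interpolation; highest concentration if not reached. GI50: concentration for 50% inhibition of growth. TGI denotes the concentration required for complete inhibition of growth.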

tested on: MDA-MB-468 breast; assay: DTP human tumour cell line panel, 48 h

Which results are given for c1ccc2cc(C[n+]3ccn(Cc4ccc5ccccc5n4)c3)ccc2c1?
GI50: 80.7 nM and 611 nM; TGI: 496 nM and 4140 nM

What does the source list for COc1ccc(/C=N\NC(=O)c2ccc3nc(-c4ccc(Cl)cc4)[nH]c3c2)cc1?
GI50: 1940 nM; TGI: 4550 nM

What does the source list for Cc1ccc(-c2cc(-c3ccc(C)cc3)nc(N3CCN(CCNc4ccnc5cc(Cl)ccc45)CC3)n2)cc1?
GI50: 1740 nM; TGI: 8300 nM

For COc1cnc2c(c1)C(=O)c1c-2n(CCCNCCN2CCOCC2)c(=O)c2cc([N+](=O)[O-])ccc12, which GI50 is on record?
Its GI50 is 124 nM.

What about the TGI of the same compound?
Its TGI is 605 nM.

Which results are given for O=C(O)c1cn(C2CC2)c2cc(N3CCNCC3)c(F)cc2c1=O?
GI50: > 100000 nM; TGI: > 100000 nM

Which GI50 does the source give for O=C(Nc1ccc(Oc2ccc(NC(=O)Nc3ccc([N+](=O)[O-])cc3)cc2)cc1)Nc1ccc([N+](=O)[O-])cc1 here?
The GI50 was 1560 nM.

And the TGI?
Its TGI is 14100 nM.

What does the source list for CC[C@H](C)[C@H](NC(=O)NC(C)(C)C)C(=O)N(C)[C@H](C[C@@H](OC(C)=O)c1nc(C(=O)N[C@@H](Cc2ccccc2)C[C@H](C)C(=O)OC)cs1)C(C)C?
GI50: 79.7 nM; TGI: 441 nM

With O=C(Nc1ccc(Nc2ccncc2)cc1)c1ccc(Nc2ccnc3ccc([N+](=O)[O-])cc23)cc1[N+](=O)[O-] as the compound, how does the GI50 read?
The GI50 was 1750 nM.

And the TGI?
The TGI was 18300 nM.

How did the GI50 turn out when CC(C)=CC(=O)N[C@@H]1CC2CCC3C(CC[C@@]4(C)C3CC[C@@H]4C(C)N(C)C)[C@@]2(C)C[C@@H]1O (stereo partly drawn) was run?
Its GI50 is 1540 nM.

And the TGI?
Its TGI is 8980 nM.

O=C(CCN1CCCC1)Nc1ccc2c(NCCc3ccccc3)c3ccccc3nc2c1 was tested. Which GI50 did it give?
The GI50 was 284 nM.

What about the TGI of the same compound?
Its TGI is 1040 nM.

With COC1C(CO)OC(n2c3c(Cl)cccc3c3c4c(c5c6cccc(Cl)c6[nH]c5c32)C(=O)NC4=O)C(O)C1O (stereo not drawn) as the compound, how does the GI50 read?
The GI50 was 74.3 nM.

What about the TGI of the same compound?
The TGI was 352 nM.

What does the source list for C[C@@H](Oc1cc(-n2cnc3ccc(OCC4CCN(C)CC4)cc32)sc1C(N)=O)c1ccccc1Cl?
GI50: 9.3 nM; TGI: 220 nM

Which results are given for CCOC(=O)Cn1c(-c2nonc2NC(=O)c2ccccc2F)nc2ccccc21?
GI50: 21800 nM; TGI: > 100000 nM

For O=C1CC(c2ccsc2)c2snc(-c3ccc(Cl)cc3)c2N1 (stereo not drawn), which GI50 is on record?
The GI50 was 291 nM.

And the TGI?
The TGI was 1720 nM.

Which GI50 does the source give for COc1ccc(-c2nc(-c3ccccn3)c(-c3ccccn3)n2CC(C)C)cc1OC1CCCC1 here?
Its GI50 is 38400 nM.

What about the TGI of the same compound?
The TGI was 136000 nM.

How did the GI50 turn out when O=c1[nH]c(Sc2sc3ccc(Cl)cc3c2CBr)nc(=S)[nH]1 was run?
The GI50 was over 68800 nM.

And the TGI?
Its TGI is over 100000 nM.

What does the source list for O=c1c2c(=NCCN3CCCC3)cc3c(=O)n(CCCN4CCOCC4)c(=O)c4ccc(c(O)n1CCCN1CCOCC1)c2c4-3?
GI50: 109 nM; TGI: 335 nM

How did the GI50 turn out when Clc1ccc2nc(Cl)c3ccccc3c2c1 was run?
Its GI50 is 10500 nM.

And the TGI?
The TGI was 38700 nM.

C=C(C)[C@@H]1CC[C@]2(C(=O)O)CC[C@]3(C)[C@H](CC[C@@H]4[C@@]5(C)C/C(=C/c6cccc(I)c6)C(=O)C(C)(C)[C@@H]5CC[C@]43C)[C@@H]12 was tested. Which GI50 did it give?
The GI50 was 2450 nM.

What about the TGI of the same compound?
The TGI was 11100 nM.

For O=C1/C(=C/c2ccc(Cl)cc2)CN(C(=O)CCN2CCC(=NO)CC2)C/C1=C\c1ccc(Cl)cc1, which GI50 is on record?
The GI50 was 833 nM.

And the TGI?
The TGI was 2510 nM.

Nc1nccc2c1ccn2-c1cccc(NC(=O)c2ccc(N3CCOCC3)c(C(F)(F)F)c2)c1 was tested. Which GI50 did it give?
The GI50 was 331 nM.

What about the TGI of the same compound?
Its TGI is 3190 nM.

With Oc1ccc(Oc2cnc3cc(Cl)ccc3n2)cc1 as the compound, how does the GI50 read?
The GI50 was 26300 nM.

What about the TGI of the same compound?
Its TGI is over 100000 nM.

CN(C)c1ccc(Nc2c3ccccc3nc3cc(NC(=O)CCN4CCCC4)ccc23)cc1 was tested. Which GI50 did it give?
The GI50 was 290 nM.

What about the TGI of the same compound?
The TGI was 1130 nM.

How did the GI50 turn out when COc1ccc(C2=N[C@@H](c3ccc(Cl)cc3)[C@@H](c3ccc(Cl)cc3)N2C(=O)N2CCNC(=O)C2)c(OC(C)C)c1 was run?
The GI50 was 12200 nM and 11500 nM and 12700 nM.

What about the TGI of the same compound?
Its TGI is 25200 nM and 24500 nM and 26600 nM.
